Experiment: Quantification of garlic-derived metabolites in human urine after ingestion of 3 g raw garlic (SIDA, SAFE, HRGC-MS / HRGC-GC-MS)
Type: in vivo
Conditions: for metabolite concentration in urine / metabolite concentration in urine, creatinine-normalized: 3 g raw garlic
Excerpt: Human urine samples were obtained from 18 volunteers (age 22–38 years, mean 27 years; 11 females, 7 males); thereby, one volunteer conducted the whole experimental series twice. At the time of examination, volunteers reported no known illness that might have potentially influenced the metabolism or the excretion of urine. The test persons were instructed to avoid foods that were rich in sulfur-containing substances at the testing day as well as 2 days preceding the testing day, namely garlic, onion, wild garlic, chives, cabbage, and leek, and were only allowed to consume the garlic sample provided in the course of the experiments. Additionally, subjects were asked to keep records of the food (including food supplements) and beverages they consumed during these 3 testing days. Generally, the overall panelists' requirements were in accordance with our previous studies ([5], [16]).
On the sampling day, the outer garlic cloves of a whole garlic bulb were peeled and cut into ~3 mm cubes by using a garlic cutter (Genius GmbH, Limburg/Lahn, Germany). Subsequently these cubes were thoroughly mixed and aliquoted into 3 g portions. Three to four test persons conducted the experiment at the same day. Each test person was asked to ingest a garlic portion of 3 g. In total, eight consecutive urine samples were provided by each test person, comprising one whole urine set. The samples were collected in sterile brown glass bottles, with sampling times as follows: one sample was provided directly prior to garlic consumption. The series of the second to eighth sample was then obtained at about 0.5, 1, 2, 4, 6, 8, and 24 h after garlic consumption, respectively. Between the first urine sample (prior to garlic consumption) and the seventh urine sample (8 h after garlic consumption) test persons only spent urine at the specific time points mentioned before. Another sample was provided at the next morning (24 h after garlic consumption). Between the samples provided 8 and 24 h after garlic consumption no urine was collected. All samples were immediately placed into a −80°C freezer and were kept frozen until further analysis.
The samples of each set were termed according to their sampling time. The following list provides the time intervals that are related to the respective sample name: • - pre: before garlic consumption • - 0.5 h post: 0.4–0.8 h after garlic consumption • - 1 h post: 0.9–1.3 h after garlic consumption • - 2 h post: 1.8 h−2.2 h after garlic consumption • - 4 h post: 3.8–4.4 h after garlic consumption • - 6 h post: 5.8–6.4 h after garlic consumption • - 8 h post: 7.8–8.4 h after garlic consumption • - 24 h post: 23.8–25.6 h after garlic consumption
A creatinine kit (Labor+Technik Eberhard Lehmann GmbH, Berlin, Germany) was used to determine the creatinine content in each urine sample. The determination principle of this kit is based on the reaction of creatinine with picric acid under basic conditions (Jaffé reaction). The formed complex was detected photometrically at a wavelength of 492 nm.
For quantification purposes, the deuterated standards ^2H3-AMS, ^2H3-AMSO, and ^2H3-AMSO2 were added to the sample and stirred for 10 min. Subsequently, DCM was added in a ratio of 1:2 (DCM/human urine; v/v) and this solution was stirred for further 30 min at room temperature. To isolate the volatile fraction from the urine samples we then applied SAFE-distillation ([17]), thereby distilling the respective samples at 50°C. After completion of the distillation process, 10 mL of DCM were applied in each case to rinse the SAFE apparatus and to ensure complete transition of the volatile compounds. This process was repeated with another 10 mL of DCM. After thawing, the obtained aqueous distillate phase was extracted three times with 25 mL DCM. The organic phases were combined, dried over anhydrous Na2SO4 and concentrated to a total volume of 100 μL by means of Vigreux distillation and subsequent micro-distillation at 50°C. […]

In the case of `C=CCSC` [AMS, allyl methyl sulfide], the “concentration in urine compared with human milk” value (3 g raw garlic in both studies, milk data ref 20) is reported as “comparable excretion levels in both media”, the “metabolite concentration in urine” value (U I, 0.5 h post (0.55 h)) is reported as 0.9 µg/kg and the “metabolite concentration in urine, creatinine-normalized” value (U I, 0.5 h post (0.55 h)) is reported as 0.1 µg/mmol creatinine. For the same compound, the “metabolite concentration in urine” value (U I, 1 h post (1.03 h)) was 0.7 µg/kg, the “metabolite concentration in urine, creatinine-normalized” value (U I, 1 h post (1.03 h)) was 0.8 µg/mmol creatinine and the “metabolite concentration in urine” value (U I, 2 h post (2.05 h)) was 1.7 µg/kg. The “metabolite concentration in urine, creatinine-normalized” value (U I, 2 h post (2.05 h)) was 0.8 µg/mmol creatinine, the “metabolite concentration in urine” value (U I, 4 h post (4.05 h)) was 1.6 µg/kg and the “metabolite concentration in urine, creatinine-normalized” value (U I, 4 h post (4.05 h)) was 0.2 µg/mmol creatinine. The “metabolite concentration in urine” value (U I, 6 h post (6.05 h)) was 1.5 µg/kg, the “metabolite concentration in urine, creatinine-normalized” value (U I, 6 h post (6.05 h)) was 0.2 µg/mmol creatinine and the “metabolite concentration in urine” value (U I, 8 h post (8.05 h)) was 0.7 µg/kg. The “metabolite concentration in urine, creatinine-normalized” value (U I, 8 h post (8.05 h)) was 0.1 µg/mmol creatinine, the “metabolite concentration in urine” value (U I, 24 h post (25.55 h)) was “traces^1” and the “metabolite concentration in urine, creatinine-normalized” value (U I, 24 h post (25.55 h)) was “traces^1”. The “metabolite concentration in urine” value (U I, pre (-0.03 h)) was “< LOD^1”, the “metabolite concentration in urine, creatinine-normalized” value (U I, pre (-0.03 h)) was “< LOD^1” and the “metabolite concentration in urine” value (U II, 0.5 h post (0.50 h)) was 0.5 µg/kg. The “metabolite concentration in urine, creatinine-normalized” value (U II, 0.5 h post (0.50 h)) was 0.1 µg/mmol creatinine, the “metabolite concentration in urine” value (U II, 1 h post (1.00 h)) was 0.9 µg/kg and the “metabolite concentration in urine, creatinine-normalized” value (U II, 1 h post (1.00 h)) was 0.3 µg/mmol creatinine. The “metabolite concentration in urine” value (U II, 2 h post (2.00 h)) was 0.5 µg/kg, the “metabolite concentration in urine, creatinine-normalized” value (U II, 2 h post (2.00 h)) was 0.4 µg/mmol creatinine and the “metabolite concentration in urine” value (U II, 4 h post (4.00 h)) was 0.7 µg/kg. For the same compound, the “metabolite concentration in urine, creatinine-normalized” value (U II, 4 h post (4.00 h)) was 0.1 µg/mmol creatinine, the “metabolite concentration in urine” value (U II, 6 h post (6.00 h)) was 0.4 µg/kg and the “metabolite concentration in urine, creatinine-normalized” value (U II, 6 h post (6.00 h)) was 0.04 µg/mmol creatinine. For the same compound, the “metabolite concentration in urine” value (U II, 8 h post (8.00 h)) was 0.2 µg/kg, the “metabolite concentration in urine, creatinine-normalized” value (U II, 8 h post (8.00 h)) was 0.02 µg/mmol creatinine and the “metabolite concentration in urine” value (U II, 24 h post (24.12 h)) was “traces^1”. The “metabolite concentration in urine, creatinine-normalized” value (U II, 24 h post (24.12 h)) was “traces^1”, the “metabolite concentration in urine” value (U II, pre (-0.13 h)) was “< LOD^1” and the “metabolite concentration in urine, creatinine-normalized” value (U II, pre (-0.13 h)) was “< LOD^1”. The “metabolite concentration in urine” value (U III, 0.5 h post (0.53 h)) was 0.6 µg/kg, the “metabolite concentration in urine, creatinine-normalized” value (U III, 0.5 h post (0.53 h)) was 0.3 µg/mmol creatinine and the “metabolite concentration in urine” value (U III, 1 h post (1.07 h)) was 0.6 µg/kg. For the same compound, the “metabolite concentration in urine, creatinine-normalized” value (U III, 1 h post (1.07 h)) was 0.8 µg/mmol creatinine, the “metabolite concentration in urine” value (U III, 2 h post (2.18 h)) was 1.2 µg/kg and the “metabolite concentration in urine, creatinine-normalized” value (U III, 2 h post (2.18 h)) was 0.7 µg/mmol creatinine. For the same compound, the “metabolite concentration in urine” value (U III, 4 h post (4.35 h)) was 0.8 µg/kg, the “metabolite concentration in urine, creatinine-normalized” value (U III, 4 h post (4.35 h)) was 0.3 µg/mmol creatinine and the “metabolite concentration in urine” value (U III, 6 h post (6.35 h)) was 0.6 µg/kg. For the same compound, the “metabolite concentration in urine, creatinine-normalized” value (U III, 6 h post (6.35 h)) was 0.1 µg/mmol creatinine, the “metabolite concentration in urine” value (U III, 8 h post (8.43 h)) was 0.4 µg/kg and the “metabolite concentration in urine, creatinine-normalized” value (U III, 8 h post (8.43 h)) was 0.1 µg/mmol creatinine. For the same compound, the “metabolite concentration in urine” value (U III, 24 h post (23.90 h)) was “traces^1”, the “metabolite concentration in urine, creatinine-normalized” value (U III, 24 h post (23.90 h)) was “traces^1” and the “metabolite concentration in urine” value (U III, pre (-0.03 h)) was “traces^1”. The “metabolite concentration in urine, creatinine-normalized” value (U III, pre (-0.03 h)) was “traces^1”, the “metabolite concentration in urine” value (U IV, 0.5 h post (0.55 h)) was 0.7 µg/kg and the “metabolite concentration in urine, creatinine-normalized” value (U IV, 0.5 h post (0.55 h)) was 0.1 µg/mmol creatinine. For the same compound, the “metabolite concentration in urine” value (U IV, 1 h post (1.05 h)) was 0.7 µg/kg, the “metabolite concentration in urine, creatinine-normalized” value (U IV, 1 h post (1.05 h)) was 0.5 µg/mmol creatinine and the “metabolite concentration in urine” value (U IV, 2 h post (2.12 h)) was 0.7 µg/kg. The “metabolite concentration in urine, creatinine-normalized” value (U IV, 2 h post (2.12 h)) was 0.4 µg/mmol creatinine, the “metabolite concentration in urine” value (U IV, 4 h post (4.05 h)) was 0.8 µg/kg and the “metabolite concentration in urine, creatinine-normalized” value (U IV, 4 h post (4.05 h)) was 0.2 µg/mmol creatinine. For the same compound, the “metabolite concentration in urine” value (U IV, 6 h post (6.08 h)) was 0.6 µg/kg.

Reference: publication PMC6499206, “Quantification of Volatile Metabolites Derived From Garlic (Allium sativum) in Human Urine” (Frontiers in Nutrition, 2019)
